Earlier results, collected in patent US9066860B2, “Oil-in-water emulsified composition” (SHISEIDO COMPANY, LTD., priority 2009, dated 2015).

Details: background art statement

| Maximum (peak) absorption wavelength | SMILES |
| --- | --- |
| around 360 nm | COc1ccc(C(=O)CC(=O)c2ccc(C(C)(C)C)cc2)cc1 [4-tert-butyl-4′-methoxydibenzoylmethane] |
| ~290 nm | CCCCC(CC)COC(=O)c1ccc(N(C)C)cc1 (stereo not drawn) [2-ethylhexyl-p-dimethylaminobenzoate] |
| ~310 nm | CCCCC(CC)COC(=O)C=Cc1ccc(OC)cc1 (stereo not drawn) [2-ethylhexyl p-methoxycinnamate] |
